Results as given in patent publication EP0597303A2, “Cephalosporin derivatives” (priority 1992, dated 1994).
Where a name gives a salt, the structure may show the parent alone.

Columns and labels:
Ps. aeruginosa 56M = assay: MIC, Agar (Mueller Hinton) Dilution Method; assay type: cell-based; details: Pseudomonas aeruginosa, Gram Negative
How it was run: (§1)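 Each strain was exposed in vitro to compound-containing Mueller Hinton agar at graded dilutions. The MIC was recorded in micrograms/ml.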

Str. pneumoniae 6302 = assay: MIC, Agar (Mueller Hinton) Dilution Method; assay type: cell-based; details: Streptococcus pneumoniae, Gram Positive and Others
How it was run: as §1

N#CCC(=O)N[C@@H]1C(=O)N2C(C(=O)O)=C(COC(=O)N[C@H]3CCN(c4c(F)cc5c(=O)c(C(=O)O)cn(C6CC6)c5c4F)C3)CS[C@H]12 [Formula Iba, [6R-[3(S^*), 6 alpha, 7 beta]]-3-[[[[[1-(3-Carboxy-1-cyclopropyl-6,8-difluoro-1,4-dihydro-4-oxo-7-quinolinyl-3-pyrrolidinyl]-amino]carbonyl]oxy]methyl]-7-[(cyanoacetyl)amino]-8-oxo-5-thia 1-azabicyclo[4.2.0]oct-2-ene-2-carboxylic acid monosodium salt]
MIC (Ps. aeruginosa 56M): 0.0625 µg/mL
MIC (Str. pneumoniae 6302): 0.0625 µg/mL

O=C(Cc1cccs1)N[C@@H]1C(=O)N2C(C(=O)O)=C(COC(=O)N3CCN(c4c(F)cc5c(=O)c(C(=O)O)cn(C6CC6)c5c4F)CC3)CS[C@H]12 [Formula Ia, [6R,7R]-3-[[[[4-(3-Carboxy-1-cyclopropyl-6,8-difluoro-1,4-dihydro-4-oxo-7-quinolinyl)-1-piperazinyl]carbonyl]-oxy]-methyl]-8-oxo-7-[(2-thienylacetyl)amino]-5-thia-1-azabicyclo-[4.2.0]oct-2-ene-2-carboxylic acid]
MIC (Ps. aeruginosa 56M): 0.25 µg/mL

N#CCC(=O)N[C@@H]1C(=O)N2C(C(=O)O)=C(COC(=O)N[C@@H]3CCN(c4c(F)cc5c(=O)c(C(=O)O)cn(C6CC6)c5c4F)C3)CS[C@H]12 [Formula Ibb, [6R-[3(R^*), 6 alpha, 7 beta]]-3-[[[[[1-(3-Carboxy-1-cyclopropyl-6,8-difluoro-1,4-dihydro-4-oxo-7-quinolinyl-3-pyrrolidinyi]amino]carbonyl]oxy]methyL]-7-[(cyanoacetyl)amino]-8-oxo-5-thia-1-azabicyclo[4.2.0]oct-2-ene-2-carboxylic acid monosodium salt]
MIC (Ps. aeruginosa 56M): 0.25 µg/mL
MIC (Str. pneumoniae 6302): 0.0625 µg/mL

N#CCC(=O)N[C@@H]1C(=O)N2C(C(=O)O)=C(COC(=O)NC3CCN(c4c(F)cc5c(=O)c(C(=O)O)cn(C6CC6)c5c4F)C3)CS[C@H]12 (stereo partly drawn) [Formula Ib, [6R,7R]-3-[[[[[1-(3-Carboxy-1-cyclopropyl-6,8-difluoro-1,4-dihydro-4-oxo-7-quinolinyl-3-[R,S]-pyrrolidinyl]-amino]carbonyl]oxy]methyl]-7-[(cyanoacetyl)amino]-8-oxo-5-thia-1-azabicyclo[4.2.0]oct-2-ene-2-carboxyiic acid monosodium salt]
MIC (Ps. aeruginosa 56M): 0.25 µg/mL
